From PMC4954775 (Nature chemical biology, 2013)
pIC50: −log10 of the molar value.

Target: T1, α-L-iduronidase (IDUA) (Homo sapiens, UniProt P35475)
T1 sequence (P35475 28-653): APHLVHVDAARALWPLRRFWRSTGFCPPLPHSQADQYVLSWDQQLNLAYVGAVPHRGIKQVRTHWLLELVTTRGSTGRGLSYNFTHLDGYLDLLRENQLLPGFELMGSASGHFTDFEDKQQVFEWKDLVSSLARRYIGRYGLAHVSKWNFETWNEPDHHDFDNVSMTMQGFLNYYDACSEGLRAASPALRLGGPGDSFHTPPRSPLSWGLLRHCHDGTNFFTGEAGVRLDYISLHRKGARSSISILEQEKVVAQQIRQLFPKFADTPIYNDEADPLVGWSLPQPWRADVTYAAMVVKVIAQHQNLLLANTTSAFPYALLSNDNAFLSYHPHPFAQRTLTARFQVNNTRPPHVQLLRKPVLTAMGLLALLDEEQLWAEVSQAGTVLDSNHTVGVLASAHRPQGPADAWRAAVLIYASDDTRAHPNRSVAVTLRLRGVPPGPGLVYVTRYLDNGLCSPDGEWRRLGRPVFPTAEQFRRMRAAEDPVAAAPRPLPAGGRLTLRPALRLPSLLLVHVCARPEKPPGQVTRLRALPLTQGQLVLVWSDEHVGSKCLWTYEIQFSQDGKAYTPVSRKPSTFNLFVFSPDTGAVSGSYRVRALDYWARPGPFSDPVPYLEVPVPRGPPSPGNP
Test: X-ray crystal structure
Type: biochemical

pIC50: ~2.52
SMILES: O=C(O)[C@@H]1NC[C@H](O)[C@@H](O)[C@@H]1O [IdoADNJ, [2R, 3R, 4R, 5S]-2-carboxy-3,4,5-trihydroxy-piperidine]
